These compounds were tested against human PDE10A2 (Homo sapiens (Human), UniProt Q9Y233) (assay: PDE10 fluorescence polarization (IMAP FP) inhibition assay). Conditions: FAM-labeled cAMP substrate 50 nM, room temperature, apparent inhibition constant; read-out: PDE10A Ki.
Type: biochemical
Description: The activity of the compounds in accordance with the present invention as PDE10 inhibitors may be readily determined without undue experimentation using a fluorescence polarization (FP) methodology that is well known in the art (Huang, W., et al., J. Biomol Screen, 2002, 7: 215).
In a typical experiment the PDE10 inhibitory activity of the compounds of the present invention was determined in accordance with the following experimental method. PDE10A2 was amplified from human fetal brain cDNA (Clontech, Mountain View, Calif.) using a forward primer corresponding to nucleotides 56-77 of human PDE10A2 (Accession No. AF127480, Genbank Identifier 4894716), containing a Kozak consensus sequence, and a reverse primer corresponding to nucleotides 2406-2413 of human PDE10A2 (Accession No. AF127480, Genbank Identifier 4894716). Amplification with Easy-A polymerase (Stratagene, La Jolla, Calif.) was 95° C. for 2 minutes followed by thirty three cycles of 95° C. for 40 seconds, 55° C. for 30 seconds, and 72° C. for 2 minutes 48 seconds. Final extension was 72° C. for 7 minutes. The PCR product was TA cloned into pcDNA3.2-TOPO (Invitrogen, Carlsbad, Calif.) according to standard protocol. AD293 cells with 70-80% confluency were transiently transfected with human PDE10A2/pcDNA3.2-TOPO using Lipofectamine 2000 according to manufacturer specifications (Invitrogen, Carlsbad, Calif.). Cells were harvested 48 hours post-transfection and lysed by sonication (setting 3, 10×5 sec pulses) in a buffer containing 20 mM HEPES, 1 mM EDTA and protease inhibitor cocktail (Roche). Lysate was collected by centrifugation at 75,000×g for 20 minutes. Supernatant containing the cytoplasmic fraction was used for evaluation of PDE10A2 activity. The fluorescence polarization assay for cyclic nucleotide phosphodiesterases was performed using an IMAP® FP kit supplied by Molecular Devices, Sunnyvale, Calif. (product #R8139). IMAP® technology has been applied previously to phosphodiesterase assays (Huang, W., et al., J. Biomol Screen, 2002, 7: 215). Assays were performed at room temperature in 384-well microtiter plates with an incubation volume of 20.2 μL. Solutions of test compounds were prepared in DMSO and serially diluted with DMSO to yield 8 μL of each of 10 solutions differing by 3-fold in concentration, at 32 serial dilutions per plate. 100% inhibition is determined using a known PDE10 inhibitor, which can be any compound that is present at 5,000 times its Ki value in the assay described as follows, such as papaverine (see Siuciak, et al. Neuropharmacology (2006) 51:386-396; Becker, et al. Behav Brain Res (2008) 186(2):155-60; Threlfell, et al., J Pharmacol Exp Ther (2009) 328(3):785-795), 2-{4-[pyridin-4-yl-1-(2,2,2-trifluoroethyl)-1H-pyrazol-3-yl]phenoxymethyl}quinoline succinic acid or 2-[4-(1-methyl-4-pyridin-4-yl-1H-pyrazol-3-yl)-phenoxymethyl]quinoline succinic acid (see Schmidt, et al. J Pharmacol Exp Ther (2008) 325:681-690; Threlfell, et al., J Pharmacol Exp Ther (2009) 328(3): 785-795). 0% of inhibition is determined by using DMSO (1% final concentrations).
A Labcyte Echo 555 (Labcyte, Sunnyvale, Calif.) is used to dispense 200 nL from each well of the titration plate to the 384 well assay plate. A solution of enzyme (1/1600 dilution from aliquots; sufficient to produce 20% substrate conversion) and a separate solution of FAM-labeled cAMP PDE from Molecular Devices (product #R7506), at a final concentration of 50 nM are made in the assay buffer (10 mM Tris HCl, pH 7.2, 10 mM MgCl2, 0.05% NaN3 0.01% Tween-20, and 1 mM DTT). The enzyme and the substrate are then added to the assay plates in two consecutive additions of 10 μL, and then shaken to mix. The reaction is allowed to proceed at room temperature for 30 minutes. A binding solution is then made from the kit components, comprised of 80% Solution A, 20% Solution B and binding reagent at a volume of 1/600 the total binding solution. […]

Chain of human PDE10A2 (Q9Y233 267-1055): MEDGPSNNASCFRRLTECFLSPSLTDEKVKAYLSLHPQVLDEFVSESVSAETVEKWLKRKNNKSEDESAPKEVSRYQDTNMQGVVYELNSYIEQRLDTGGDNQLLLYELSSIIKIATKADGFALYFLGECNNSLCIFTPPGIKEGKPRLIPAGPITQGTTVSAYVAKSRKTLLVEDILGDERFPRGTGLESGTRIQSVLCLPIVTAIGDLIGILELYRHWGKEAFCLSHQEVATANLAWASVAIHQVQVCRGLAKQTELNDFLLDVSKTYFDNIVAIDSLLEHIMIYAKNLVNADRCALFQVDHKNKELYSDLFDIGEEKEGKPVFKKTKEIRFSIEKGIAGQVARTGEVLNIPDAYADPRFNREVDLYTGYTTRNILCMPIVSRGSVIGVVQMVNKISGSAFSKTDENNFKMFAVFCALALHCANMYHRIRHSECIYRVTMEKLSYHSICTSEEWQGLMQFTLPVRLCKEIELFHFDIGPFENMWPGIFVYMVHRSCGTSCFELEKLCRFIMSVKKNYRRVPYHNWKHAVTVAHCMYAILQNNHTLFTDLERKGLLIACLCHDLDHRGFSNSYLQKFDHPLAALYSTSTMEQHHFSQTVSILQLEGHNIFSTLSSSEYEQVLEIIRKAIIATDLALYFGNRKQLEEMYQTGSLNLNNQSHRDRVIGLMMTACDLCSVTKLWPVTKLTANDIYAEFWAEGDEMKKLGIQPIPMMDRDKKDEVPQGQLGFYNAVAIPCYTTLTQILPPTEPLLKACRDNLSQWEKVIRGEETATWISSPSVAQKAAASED

Ki [nM]	SMILES
14	CCc1cccc(NC(=O)N2CCc3nc(-c4cccnc4)nc(OC4CCN(C)CC4)c3C2)c1 [Compound 1-7, N-(3-ethylphenyl)-4-[(1-methylpiperidin-4-yl)oxy]-2-pyridin-3-yl-7,8-dihydropyrido[4,3-d]pyrimidine-6(5H)-carboxamide]
9.2	CC(C)Oc1nc(-c2cccnc2)nc2c1CN(C(=O)Nc1ccc3ccn(C)c3c1)CC2 [Compound 1-8, 4-isopropoxy-N-(1-methyl-1H-indol-6-yl)-2-pyridin-3-yl-7,8-dihydropyrido[4,3-d]pyrimidine-6(5H)-carboxamide]
0.6	Cc1ccc(NC(=O)N2CCc3nc(-c4ccc(Cl)nc4)nc(OC(C)C)c3C2)cn1 [Compound 1-11, 2-(6-chloropyridin-3-yl)-N-(6-methylpyridin-3-yl)-4-(propan-2-yloxy)-7,8-dihydropyrido[4,3-d]pyrimidine-6(5H)-carboxamide]
0.84	COc1cc(NC(=O)N2CCc3nc(-c4ccc(Cl)nc4)nc(O[C@@H]4CCOC4)c3C2)ccn1 [Compound 1-13, 2-(6-chloropyridin-3-yl)-N-(2-methoxypyridin-4-yl)-4-[(3R)-tetrahydrofuran-3-yloxy]-7,8-dihydropyrido[4,3-d]pyrimidine-6(5H)-carboxamide]
9.9	Cc1ccc(C(=O)N2CCc3nc(-c4ccc(Cl)nc4)nc(OC(C)C)c3C2)cn1 [Compound 1-14, [2-(6-chloropyridin-3-yl)-4-(propan-2-yloxy)-7,8-dihydropyrido[4,3-d]pyrimidin-6(5H)-yl](6-methylpyridin-3-yl)methanone]
0.63	CC(C)Oc1nc(-c2ccc(Cl)nc2)nc2c1CN(S(=O)(=O)c1cccnc1)CC2 [Compound 1-17, 2-(6-chloropyridin-3-yl)-4-(propan-2-yloxy)-6-(pyridin-3-ylsulfonyl)-5,6,7,8-tetrahydropyrido[4,3-d]pyrimidine]
15.9	CC(C)Oc1nc(-c2cccnc2)nc2c1CN(c1nc3ccccc3o1)CC2 [Compound 1-18, 6-(1,3-benzoxazol-2-yl)-4-(propan-2-yloxy)-2-(pyridin-3-yl)-5,6,7,8-tetrahydropyrido[4,3-d]pyrimidine]
4.55	CC(C)Oc1nc(-c2ccc(Cl)nc2)nc2c1CN(C(=O)c1cn(C)cn1)CC2 [Compound 1-19, [2-(6-chloropyridin-3-yl)-4-(propan-2-yloxy)-7,8-dihydropyrido[4,3-]pyrimidin-6(5H)-yl](1-methyl-1H-imidazol-4-yl)methanone]
0.8	COc1ccc2[nH]c(C(=O)N3CCc4nc(-c5cccnc5)nc(OC(C)C)c4C3)cc2n1 [Compound 1-20, (5-methoxy-1H-pyrrolo[3,2-b]pyridin-2-yl)[4-(propan-2-yloxy)-2-(pyridin-3-yl)-7,8-dihydropyrido[4,3-d]pyrimidin-6(5H)-yl]methanone]
0.9	CC(C)Oc1nc(-c2ccc(Cl)nc2)nc2c1CN(C(=O)Nc1cnn(C)c1)CC2 [Compound K-2, 2-(6-chloropyridin-3-yl)-N-(1-methyl-1H-pyrazol-4-yl)-4-(propan-2-yloxy)-7,8-dihydropyrido-[4,3-d]pyrimidine-6(5H)-carboxamide]
31.4	Cc1ccc(NC(=O)N2CCc3nc(N4CCCC4)nc(OC(C)C)c3C2)cn1 [Compound N-5, 4-isopropoxy-N-(6-methylpyridin-3-yl)-2-pyrrolidin-1-yl-7,8-dihydropyrido[4,3-d]pyrimidine-6(5H)-carboxamide]
0.93	COCCOc1nc(-c2ccc(Cl)nc2)nc2c1CN(C(=O)c1cnn3ccccc13)CC2 [Compound O-2, [2-(6-chloropyridin-3-yl)-4-(2-methoxyethoxy)-7,8-dihydropyrido[4,3-d]pyrimidin-6(5H)-yl](pyrazolo[1,5-a]pyridin-3-yl)methanone]
0.92	COC[C@H](C)Oc1nc(-c2ccc(Cl)nc2)nc2c1CN(C(=O)Nc1ccc(C)nc1)CC2 [Compound P-5, 2-(6-chloropyridin-3-yl)-4-{[(2S)-1-methoxypropan-2-yl]oxy}-N-(6-methylpyridin-3-yl)-7,8-dihydropyrido[4,3-d]pyrimidine-6(5H)-carboxamide]
0.99	COCCOc1nc(-c2ccc(Cl)nc2)nc2c1CN(C(=O)c1ncn3ccccc13)CC2 [Compound Q-2, [2-(6-chloropyridin-3-yl)-4-(2-methoxyethoxy)-7,8-dihydropyrido[4,3-d]pyrimidin-6(5H)-yl](imidazo[1,5-a]pyridin-1-yl)methanone]
12.5	COCCOc1nc(-c2ccc(C)nc2)nc2c1CN(C(=O)c1cnn3ccccc13)CC2 [Compound R-1, 4-(2-methoxyethoxy)-2-(6-methylpyridin-3-yl)-6-(pyrazolo[1,5-a]pyridin-3-ylcarbonyl)-5,6,7,8-tetrahydropyrido[4,3-d]pyrimidine]
16.8	COCCOc1nc(-c2ccc(Cl)nc2)nc2c1CN(C(=O)Oc1ccccc1)CC2 [Compound S-1, phenyl 2-(6-chloropyridin-3-yl)-4-(2-methoxyethoxy)-7,8-dihydropyrido[4,3-d]pyrimidine-6(5H)-carboxylate]
0.43	COC[C@H](C)Oc1nc(-c2ccc(Cl)nc2)nc2c1CN(C(=O)c1ncn3ccccc13)CC2 [Compound T-1, [2-(6-chloropyridin-3-yl)-4-{[(2S)-1-methoxypropan-2-yl]oxy}-7,8-dihydropyrido[4,3-d]pyrimidin-6(5H)-yl](imidazo[1,5-a]pyridin-1-yl)methanone]

— patent US8492392B2, “Alkoxy tetrahydro-pyridopyrimidine PDE10 inhibitors” (Merck Sharp & Dohme Corp., priority 2009, dated 2013)
